The text below walks through data of patent publication US5968967A, “Pyrazolones derivatives” (Nissan Chemical Industries, Ltd., priority 1995, dated 1999).

Structures can show the parent of a compound that is named as a salt. Where two headings read alike, the source gives them in different places.

For orientation: IC50 means the concentration that inhibits the measured activity by half.

The experiment concerns Guinea-pig PRP (platelet aggregation). The experiment can be described thus: (A) In vitro antiplatelet aggregation effect in guinea pigs (PRP), Table IV-1. The note with it: Cavia porcellus, PRP 300,000/mm^3, 37° C. It is filed as cell-based, guinea pig (Hartley male). The protocol: Nine parts by volume of blood was collected from the abdominal artery of Hartley male guinea-pigs (weight: about 300 g) in syringes containing 1 part by volume of 3.8% sodium citrate. The blood thus obtained was centrifuged at 200×g for 10 minutes at room temperature to obtain platelet rich plasma (PRP). Furthermore, the residue was centrifuged at 2000×g for 15 minutes to obtain platelet poor plasma (PPP). The measurement was effected by diluting PRP with PPP to 300,000/mm^3. PRP and PPP were put in cuvettes, and the measurement range of transmittance was adjusted to 0% in the case of PRP and to 100% in the case of PPP. Thereafter, a test sample drug dissolved in H2 O:MeOH (1:2) was added to PRP. After the PRP was incubated at 37° C. at 1000 rpm for 2 minutes, an aggregating agent was added to record an aggregation curve. The antiplatelet aggregation effect of the test sample drug was expressed by the concentration (IC50 : μM) at which the aggregation of the control sample was 50% inhibited. […] The measurement of platelet aggregation was carried out by using NBS HEMA TRACER 601.
In vitro antiplatelet aggregation tests; (A) and (B) Tables IV-1 and 2 show antiplatelet aggregation effects of test compounds evaluated as IC50 values (μM). The compound Nos. in Table I should be referred to for the structures of the compounds.

Setting [1] is: aggregating agent ADP, read-out: Guinea-pig PRP IC50, ADP.
Setting [2] is: aggregating agent collagen 1 to 2 μg/ml, read-out: Guinea-pig PRP IC50, Collagen.

Regarding `CCOC(=O)COC1CCN(C(=O)c2c(-c3ccc(-c4ccc(Cl)cc4)cc3)n(C)n(-c3ccc(C(=N)N)cc3)c2=O)CC1` [Compound No. 2], the IC50 by setting is: under setting [1], 8.1 µM; under setting [2], 3.9 µM. The matching figures for `Cn1cc(C(=O)N2CCC(OCC(=O)O)CC2)c(=O)n1-c1ccc(C(=N)N)cc1` [Compound No. 10]: 35 µM and 17 µM. The matching figures for `CCOC(=O)COC1CCN(C(=O)c2cn(C)n(-c3ccc(C(=N)N)cc3)c2=O)CC1` [Compound No. 11]: 31 µM and 17 µM. With `Cn1c(-c2ccc(C(C)(C)C)cc2)c(C(=O)N2CCC(OCC(=O)O)CC2)c(=O)n1-c1ccc(C(=N)N)cc1` [Compound No. 28, 1-(4-amidinophenyl)-3-(4-t-butylphenyl)-4-([4-(carboxymethyloxy)-1-piperidinyl]carbonyl}-2-methyl-2H-pyrazol-5-one hydrochloride], the IC50 is 25 µM under setting [1] and 17 µM under setting [2]. Take `Cn1cc(C(=O)NCCCOCC(=O)O)c(=O)n1-c1ccc(C(=N)N)cc1` [compound 7]: under setting [1], the IC50 is 300 µM. For `CCOC(=O)COCCN(C)C(=O)c1c(-c2ccccc2)n(C)n(-c2ccc(C(=N)N)cc2)c1=O` [compound 15], the IC50 under setting [1] turned out to be 114 µM and the IC50 under setting [2] was 57 µM. For `Cn1c(-c2ccccc2)c(C(=O)N2CCC(OCC(=O)O)CC2)c(=O)n1-c1ccc(C(=N)N)cc1` [compound 17], the IC50 runs as follows: under setting [1], 20 µM; under setting [2], 23 µM.

For the compound `CCOC(=O)COCCNC(=O)c1c(-c2ccc(-c3ccccc3)cc2)n(C)n(-c2ccc(C(=N)N)cc2)c1=O` [compound 20], the IC50 stood at 30 µM under setting [1] and 12 µM under setting [2].

In the case of `CCOC(=O)COC1CCN(C(=O)c2c(-c3ccc(-c4ccccc4)cc3)n(C)n(-c3ccc(C(=N)N)cc3)c2=O)CC1` [compound 23], the IC50 by setting is: under setting [1], 17 µM; under setting [2], 9.3 µM. For `Cn1c(-c2ccc(C(C)(C)C)cc2)c(C(=O)NCCOCC(=O)O)c(=O)n1-c1ccc(C(=N)N)cc1` [compound 24], in that order: 46 µM and 19 µM.

As to `CCOC(=O)COCCNC(=O)c1c(-c2ccc(C(C)(C)C)cc2)n(C)n(-c2ccc(C(=N)N)cc2)c1=O` [compound 25], the IC50 is, setting by setting: under setting [1], 43 µM; under setting [2], 20 µM. As to `Cn1c(-c2ccc(C(C)(C)C)cc2)c(C(=O)NC2CCN(CC(=O)O)CC2)c(=O)n1-c1ccc(C(=N)N)cc1` [compound 109], the 50% inhibitory concentration (IC50) is, setting by setting: under setting [1], 3.4 µM; under setting [2], 4 µM. Take `CCOC(=O)CN1CCC(NC(=O)c2c(-c3ccc(C(C)(C)C)cc3)n(C)n(-c3ccc(C(=N)N)cc3)c2=O)CC1` [compound 110]: the IC50 under setting [1] is 5 µM and the 50% inhibitory concentration (IC50) under setting [2] is 3.1 µM.

With `CN(C(=O)c1c(-c2ccc(C(C)(C)C)cc2)n(C)n(-c2ccc(C(=N)N)cc2)c1=O)C1CCN(CC(=O)O)CC1` [compound 111], the IC50 was 11 µM under setting [1] and 8.1 µM under setting [2]. `CCOC(=O)CN1CCC(N(C)C(=O)c2c(-c3ccc(C(C)(C)C)cc3)n(C)n(-c3ccc(C(=N)N)cc3)c2=O)CC1` [compound 112]: the IC50 reads like this: under setting [1], 37 µM; under setting [2], 14 µM.

Consider `CCOC(=O)CN(C=O)C1CCN(C(=O)c2c(-c3ccc(C(C)(C)C)cc3)n(C)n(-c3ccc(C(=N)N)cc3)c2=O)CC1` [compound 114], for which the IC50 amounted to 21 µM under setting [1] and 14 µM under setting [2]. The matching figures for `CN(CC(=O)O)C1CCN(C(=O)c2c(-c3ccc(C(C)(C)C)cc3)n(C)n(-c3ccc(C(=N)N)cc3)c2=O)CC1` [compound 115]: 93 µM and 68 µM. On to `CCOC(=O)CN(C)C1CCN(C(=O)c2c(-c3ccc(C(C)(C)C)cc3)n(C)n(-c3ccc(C(=N)N)cc3)c2=O)CC1` [compound 116], for which, under setting [2], the IC50 was 90 µM. For `Cn1c(-c2ccc(-c3ccccc3)cc2)c(C(=O)NC2CCN(CC(=O)O)CC2)c(=O)n1-c1ccc(C(=N)N)cc1` [compound 125], the IC50 reads like this: under setting [1], 42 µM; under setting [2], 4.2 µM. Consider `CCOC(=O)CN1CCC(NC(=O)c2c(-c3ccc(-c4ccccc4)cc3)n(C)n(-c3ccc(C(=N)N)cc3)c2=O)CC1` [compound 126], for which the IC50 under setting [1] is 76 µM and the IC50 under setting [2] is 7.6 µM.

`CCCCc1ccc(-c2c(C(=O)N3CCC(OCC(=O)OCC)CC3)c(=O)n(-c3ccc(C(=N)N)cc3)n2C)cc1` [compound 128]: the IC50 runs as follows: under setting [1], 20 µM; under setting [2], 7.1 µM.
